These results are taken from US20090149417A1, “Methods and compositions for the treatment of cancer using benzopyrone-type PARP inhibitors” (priority 2007, published 2009).

Structures are written as SMILES.

The subject of one series is Colo357FG. Briefly: Luciferase-expressing pancreatic cancer orthotopic nude mouse model. The format is in vivo. On the procedure: (§1) The therapeutic efficacy of IIIg on tumor growth and survival is evaluated in different luciferase-expressing pancreatic cancer orthotopic nude mouse models using an IVIS100 Imaging System, allowing a quantitative real time monitoring of tumor growth.
(§2) Mice are monitored daily for signs of toxicity including weight loss, diarrhea, inactivity, and general appearance.
Three days after the orthotopic implantation of 1.0×10^6 COL0357FG tumor cells in 50 μL of HBSS, when bioluminescence imaging confirmed that tumors are well established, in one experiment, mice are randomly allocated into three groups (n=10 mice per group) to receive one of the following treatments. (a) Vehicle solution for 50 μL of sterile saline; (b) IIIg (25 mg/kg) biweekly i.p.; (c) IIIg (100 mg/kg) biweekly i.p. Treatments are continued for 4 weeks. All mice are weighed weekly and observed for tumor growth. Tumor diameter is assessed with a Vernier caliper, and tumor volume (mm^3) is calculated as d^2×D/2, wherein d and D represent the shortest and longest diameters, respectively. Bulky disease is considered present when tumor burden is prominent in the mouse abdomen (tumor volume, >=2,000 mm^3).
In another experiment, mice are randomly allocated into four groups (n=10 mice per group) to receive one of the following treatments. (a) Vehicle solution for 50 μL of sterile saline; (b) IIIg (200 mg/kg) once weekly i.p.; (c) IIIg (100 mg/kg) biweekly i.p; (d) IIIg (40 mg/kg) once daily i.p. Treatments are continued for 4 weeks. All mice are weighed weekly and observed for tumor growth. Tumor diameter is assessed with a Vernier caliper, and tumor volume (mm^3) is calculated as d^2×D/2, wherein d and D represent the shortest and longest diameters, respectively. Bulky disease is considered present when tumor burden is prominent in the mouse abdomen (tumor volume, >=2,000 mm^3).
In another experiment, mice are randomly allocated into eight groups to receive one of the following treatments via oral or ip administration. (a) Vehicle solution for 50 μL of sterile saline (oral); (b) Gemcitabine (25 mg/kg) biweekly for 4 weeks (ip); (c) IIIg (200 mg/kg) once weekly (oral); (d) IIIg (200 mg/kg) biweekly (oral); (e) IIIg (200 mg/kg) once daily (oral); (f) IIIg (400 mg/kg) once weekly (oral); (g) IIIg (400 mg/kg) biweekly (oral); (h) IIIg (400 mg/kg) once daily (oral). In all treatments, IIIg is given orally. Treatments are continued for 4 weeks. All mice are weighed weekly and observed for tumor growth. Tumor diameter is assessed with a Vernier caliper, and tumor volume (mm^3) is calculated as d^2×D/2, wherein d and D represent the shortest and longest diameters, respectively. Bulky disease is considered present when tumor burden is prominent in the mouse abdomen (tumor volume, >=2,000 mm^3).
When at least 6 of 10 mice in a treatment group presented with bulky disease, the median survival duration for that group is considered to be reached. At the median survival duration of the control group, the tumor growth in mice in all groups is evaluated using the bioluminescence emitted by the tumor cells. Bioluminescence imaging is conducted using a cryogenically cooled IVIS 100 imaging system coupled to a data acquisition computer running Living Image software (Xenogen). The mice are sacrificed by carbon dioxide inhalation when evidence of advanced bulky disease is present. The day of sacrifice is considered the day of death for survival evaluation.
Three days after the orthotopic implantation of 1.0×10^6 COL0357FG tumor cells in 50 μL of HBSS, when bioluminescence imaging confirmed that tumors are well established, mice are randomly allocated into four groups to receive one of the following treatments: (a) Vehicle solution for 50 μL of sterile saline; (b) IIIg (400 mg/kg) once daily for 4 weeks [(QD5+R2)×4]; (c) oxaliplatin (10 mg/kg) biweekly for 4 weeks (ip); (d) combination of IIIg (400 mg/kg) once daily for 4 weeks [(QD5+R2)×4] with oxaliplatin (10 mg/kg biweekly, ip). […]

The next series deals with L3.6 μl PC cells. Described as above. The format is in vivo. To be noted: 100 mg/kg/day 2/week×4 weeks. On the procedure:
as §1, §2

In series [1] the test system is human tumor cells including pancreatic, breast, uterine, lung, prostate, and ovarian cancer cells. Briefly: Proliferation of human tumor cells in vitro (summary). Type of series: cell-based.
The mark [2] stands for this setting: intraperitoneal injection, 200 mg/kg QW×4.
The mark [3] stands for this setting: oral, 400 mg/kg [QD5+R2]×4, compared to no treatment and standard gemcitabine treatment.

`O=c1ccc2c(I)c([N+](=O)[O-])ccc2o1` [IIIg, 5-iodo-6-nitro-benzopyrone]: the Signs of toxicity entry in the series with Colo357FG (100 mg/kg/day 2/week×4 weeks) and with L3.6 μl PC cells was “without signs of toxicity” throughout. For the same compound, the Survival result was “prolongs survival” in the series with Colo357FG (100 mg/kg/day 2/week×4 weeks), “prolongs the survival” in the series with Colo357FG (setting [2]), “prolongs survival” in the series on Colo357FG (setting [3]) and “prolongs survival” in the series on L3.6 μl PC cells. Moreover, the Tumor burden result is recorded as “significantly reduces the tumor burden” in the series on Colo357FG (100 mg/kg/day 2/week×4 weeks), “potently reduces the tumor burden” in the series with Colo357FG (setting [2]), “significantly reduces the tumor burden” in the series with Colo357FG (setting [3]) and “significantly reduces the tumor burden” with L3.6 μl PC cells. For the same compound, in the series with Colo357FG (200 mg/kg/week once a week in comparison with 2 times/week or daily schedule, preliminary results), the “In vivo antitumor effect, comparison of schedules” value was “greater in vivo antitumor effect”. In addition, in the series on Colo357FG (IIIg 400 mg/kg once daily [(QD5+R2)×4] with oxaliplatin 10 mg/kg biweekly, ip), the “Anti-tumor activity of the combination” value is reported as “potent synergistic anti-tumor activity”. In addition, in series [1], the “Proliferation of human tumor cells” value is given as “inhibits the proliferation”.
